Data on three molecules can be found in patent US20080214563A1, “Benzimidazole Thiophene Compounds As Plk Modulators” (priority 2005, published 2008).

The test system of experiment [1] is A549. The experiment in a line: Methylene Blue Cell Growth Inhibition Assay, A549. It counts as cell-based. Conditions: Homo sapiens, 72 h, read-out: MEB A549 IC50. On the procedure:
(§1) Normal human foreskin fibroblasts (HFF), human colon (HCT116, RKO), lung (H460, A549) and breast (MCF7) tumor cell lines were cultured in high glucose DMEM (Life Technologies) containing 10% fetal bovine serum (FBS) at 37° C. in a humidified 5% CO2, 95% air incubator. Cells were harvested using trypsin/EDTA, counted using a haemocytometer, and plated in 100 μL of culture media per well, at the following densities, in a 96-well tissue culture plate (Falcon 3075): HFF 5,000 cells/well, HCT116 3,000 cells/well, RKO 2,500 cells/well, H460 2,500 cells/well, A549 5,000 cells/well, MCF7 4,000 cells/well. The next day, compounds were diluted in low glucose DMEM containing 100 μg/mL gentamicin, at twice the final required concentration, from 10 mM stock solutions in DMSO. 100 μL/well of these dilutions were added to the 100 μL of media currently in the assay plates. Medium containing 0.6% DMSO was added to control wells. The final concentration of DMSO in all wells was 0.3%. Cells were incubated at 37° C., 5% CO2 for 72 h. Medium was removed by aspiration. Cell biomass was estimated by staining cells with 80 μL per well methylene blue (Sigma M9140, 0.5% in 50:50 ethanol:water), and incubation at room temperature for 30-60 min. Stain was removed by aspiration and the plates rinsed by immersion in water, then air-dried. To release stain from the cells, 100 μL of solubilization solution was added (1% N-lauroyl sarcosine, Sodium salt, Sigma L5125, in PBS), and plates were shaken gently for about 30 min. Optical density at 620 nm was measured on a microplate reader. Percent inhibition of cell growth was calculated relative to vehicle treated control wells. Concentration of compound that inhibits 50% of cell growth (IC50) was interpolated using nonlinear regression (Levenberg-Marquardt) and the equation, y=Vmax*(1−(x/(K+x)))+Y2, where “K” was equal to the IC50.

Experiment [2] has as its system MX-1. The experiment in a line: Methylene Blue Cell Growth Inhibition Assay, MX-1. Conditions: Homo sapiens, MX1, 72 h, read-out: MEB MX-1 IC50. Format: cell-based.
Experiment [3] has as its system Normal human foreskin fibroblasts (HFF). Description: Methylene Blue Cell Growth Inhibition Assay, HFF. It counts as cell-based. The following applies: Fibroblast, 72 h, read-out: MEB HFF IC50. How it is done:
as §1

The target in experiment [4] is T1, PLK1 kinase domain (Homo sapiens, UniProt P53350).
T1 construct: made in house; host or cells: baculovirus infected T. ni cells
T1 sequence (P53350 21-346): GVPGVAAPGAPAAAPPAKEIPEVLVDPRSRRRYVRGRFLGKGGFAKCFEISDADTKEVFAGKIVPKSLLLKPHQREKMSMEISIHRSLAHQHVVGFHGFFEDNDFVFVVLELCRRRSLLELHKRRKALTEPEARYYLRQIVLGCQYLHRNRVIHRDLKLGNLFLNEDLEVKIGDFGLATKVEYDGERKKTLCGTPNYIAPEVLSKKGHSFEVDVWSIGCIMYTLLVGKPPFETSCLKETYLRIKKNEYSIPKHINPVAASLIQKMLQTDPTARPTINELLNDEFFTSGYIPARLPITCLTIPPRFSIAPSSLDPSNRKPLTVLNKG
Description: Assay for Inhibition of PLK1 (33P SPA kinase assay). Format: biochemical. Conditions: 2 nM PLK1 kinase domain, 1 μM ATP; read-out: PLK1 pIC50 (converted). On the procedure:
All procedures were performed at 4° C. Cells were lysed in 50 mM HEPES, 200 mM NaCl, 50 mM imidazole, 5% glycerol; pH 7.5. The homogenate was centrifuged at 14K rpm in a SLA-1500 rotor for 1 h and the supernatant filtered through a 1.2 micron filter. The supernatant was loaded onto a Nickel chelating Sepharose (Amersham Pharmacia) column and washed with lysis buffer. Protein was eluted using 20%, 30% and 100% buffer B steps where buffer B is 50 mM HEPES, 200 mM NaCl, 300 mM imidazole, 5% glycerol; pH 7.5. Fractions containing PLK were determined by SDS-PAGE. Fractions containing PLK were diluted five-fold with 50 mM HEPES, 1 mM DTT, 5% glycerol; pH 7.5, then loaded on an SP Sepharose (Amersham Pharmacia) column. After washing the column with 50 mM HEPES, 1 mM DTT, 5% glycerol; pH 7.5, PLK was step eluted with 50 mM HEPES, 1 mM DTT, 500 mM NaCl; 5% glycerol; pH 7.5. PLK was concentrated using a 10 kDa molecular weight cutoff membrane and then loaded onto a Superdex 200 gel filtration (Amersham Pharmacia) column equilibrated in 25 mM HEPES, 1 mM DTT, 500 mM NaCl, 5% glycerol; pH 7.5. Fractions containing PLK were determined by SDS-PAGE. PLK was pooled, aliquoted and stored at −80° C. Samples were quality controlled using mass spectrometry, N-terminal sequencing and amino acid analysis.
B. Enzyme activity +/− inhibitors was determined as follows:
All measurements were obtained under conditions where signal production increased linearly with time and enzyme. Test compounds were added to white 384-well assay plates (0.1 μL for 10 μL and some 20 μl assays, 1 μL for some 20 μL assays) at variable known concentrations in 100% DMSO. DMSO (1-5% final, as appropriate) and EDTA (65 mM in reaction) were used as controls.
Reaction Mix (10 or 20 μL) was quickly added to each well immediately following addition of enzyme via automated liquid handlers and incubated 1-1.5 h at 22° C. The 20 μL enzymatic reactions were stopped with 50 μL of stop mix (50 mM EDTA, 4.0 mg/mL Streptavidin SPA beads in Standard Dulbecco's PBS (without Mg^2+ and Ca^2+), 50 μM ATP) per well. The 10 μL reactions were stopped with 10 μL of stop mix (50 mM EDTA, 3.0 mg/mL Streptavidin-coupled SPA Imaging Beads (“LeadSeeker”) in Standard Dulbecco's PBS (without Mg^2+ and Ca^2+), 50 μM ATP) per well. Plates were sealed with clear plastic seals, spun at 500×g for 1 min or settled overnight, and counted in Packard TopCount for 30 seconds/well (regular SPA) or imaged using a Viewlux imager (LeadSeeker SPA). Signal above background (EDTA controls) was converted to percent inhibition relative to that obtained in control (DMSO-only) wells.

Where only a bound is given, the exact number is not on record here.

Take `C[C@@H](Oc1cc(-n2cnc3cc(-c4cnn(C)c4)ccc32)sc1C(N)=O)c1ccccc1Cl` [Example 9, 3-{[(1R)-1-(2-Chlorophenyl)ethyl]oxy}-5-[5-(1-methyl-1H-pyrazol-4-yl)-1H-benzimidazol-1-yl]-2-thiophenecarboxamide]: the IC50 is < 100 nM in experiment [1], < 100 nM in experiment [2] and 100 to 1000 nM in experiment [3].

On to `C[C@@H](Oc1cc(-n2cnc3cc(-c4ccc(N5CCNCC5)nc4)ccc32)sc1C(N)=O)c1ccccc1Cl` [Example 7, 3-{[(1R)-1-(2-Chlorophenyl)ethyl]oxy}-5-{5-[6-(1-piperazinyl)-3-pyridinyl]-1H-benzimidazol-1-yl}-2-thiophenecarboxamide], for which the IC50 in experiment [4] is < 10 nM.

For `C[C@@H](Oc1cc(-n2cnc3cc(-c4ccc(N5CCNCC5)nc4)ccc32)sc1C(N)=O)c1ccccc1C(F)(F)F` [Example 1, 5-{5-[6-(1-piperazinyl)-3-pyridinyl]-1H-benzimidazol-1-yl}-3-({(1R)-1-[2-(trifluoromethyl)phenyl]ethyl}oxy)-2-thiophenecarboxamide], the IC50 is < 10 nM in experiment [4], 100 to 1000 nM in experiment [1], 100 to 1000 nM in experiment [2] and > 1000 nM in experiment [3].
